How the values were obtained:
STEME = test: Pre-emergence action against STEME, 1280 g/ha; assay type: in vivo, Stellaria media; details: scored visually after about 3 weeks vs untreated controls (100% = plants have died)
In short: (§1)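 Pre-emergence pot test: seeds in sandy loam, soil-covered, sprayed on soil surface (WP/EC, 0.5% additive, 600 L/ha water); greenhouse ~3 wk; visual % effect vs untreated, 0–100%.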

VERPE [1] = test: Post-emergence action against VERPE, 1.28 kg/ha; assay type: in vivo, Veronica persica; details: dosage 1280 g/ha, visual rating about 3 weeks after treatment vs untreated controls (100% = plants died)
In short: (§2)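 Greenhouse-grown weeds (sandy loam, twin-sown pots) were treated 2–3 weeks post-sowing at one leaf. The spray was an aqueous WP/EC preparation plus 0.5% additive, applied at 600 L/ha. Scoring was visual at ~3 weeks, 0–100% versus untreated controls.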

MATIN [2] = test: Pre-emergence action against MATIN, 1280 g/ha; assay type: in vivo, Tripleurospermum inodorum (Matricaria inodora); details: scored visually after about 3 weeks vs untreated controls (100% = plants have died)
In short: as §1

VERPE [3] = test: Pre-emergence action against VERPE, 1280 g/ha; assay type: in vivo, Veronica persica; details: scored visually after about 3 weeks vs untreated controls (100% = plants have died)
In short: as §1

POAAN [4] = test: Pre-emergence action against POAAN, 1280 g/ha; assay type: in vivo, Poa annua; details: visual scoring after about 3 weeks vs untreated controls, 100% = plants have died, 0% = like control plants
In short: as §1

ALOMY [5] = test: Pre-emergence action against ALOMY, 1280 g/ha; assay type: in vivo, Alopecurus myosuroides; details: visual scoring after about 3 weeks vs untreated controls, 100% = plants have died, 0% = like control plants
In short: as §1

SETVI = test: Pre-emergence action against SETVI, 1280 g/ha; assay type: in vivo, Setaria viridis; details: visual scoring after about 3 weeks vs untreated controls, 100% = plants have died, 0% = like control plants
In short: as §1

LOLRI = test: Pre-emergence action against LOLRI, 1280 g/ha; assay type: in vivo, Lolium rigidum; details: visual scoring after about 3 weeks vs untreated controls, 100% = plants have died, 0% = like control plants
In short: as §1

DIGSA [6] = test: Pre-emergence action against DIGSA, 1280 g/ha; assay type: in vivo, Digitaria sanguinalis; details: visual scoring after about 3 weeks vs untreated controls, 100% = plants have died, 0% = like control plants
In short: as §1

KCHSC = test: Pre-emergence action against KCHSC, 1280 g/ha; assay type: in vivo, Bassia scoparia; details: scored visually after about 3 weeks vs untreated controls (100% = plants have died)
Excerpt: 1. Pre-Emergence Herbicidal Effect and Crop Plant Compatibility a) Seeds of mono- and dicotyledonous weed plants are placed in plastic pots in sandy loam soil (doubly sown with one species each of mono- or dicotyledonous weed plants per pot) and covered with soil. The compounds of the invention, formulated in the form of wettable powders (WP) or as emulsion concentrates (EC), are then applied onto the surface of the covering soil as aqueous suspension or emulsion with addition of 0.5% additive at a water application rate equivalent to 600 litres per hectare. After the treatment, the pots are placed in a greenhouse and kept under good growth conditions for the trial plants. After about 3 weeks, the effect of the preparations is scored visually in comparison with untreated controls as percentages. For example, 100% activity=the plants have died, 0% activity=like control plants. 1. Pre-Emergence Effectiveness Tables 1 to 12 below show the effects of selected compounds of the general formula (I) according to Tables 1 and 2 on various harmful plants and at an application rate corresponding to 1280 g/ha, which were obtained by the experimental procedure mentioned above.

AMARE = test: Pre-emergence action against AMARE, 1280 g/ha; assay type: in vivo, Amaranthus retroflexus; details: scored visually after about 3 weeks vs untreated controls (100% = plants have died)
In short: as §1

ECHCG = test: Pre-emergence action against ECHCG, 1280 g/ha; assay type: in vivo, Echinochloa crus-galli; details: visual scoring after about 3 weeks vs untreated controls, 100% = plants have died, 0% = like control plants
In short: as §1

DIGSA [7] = test: Post-emergence action against DIGSA, 1.28 kg/ha; assay type: in vivo, Digitaria sanguinalis; details: dosage 1280 g/ha, visual rating about 3 weeks after treatment vs untreated controls
In short: as §2

MATIN [8] = test: Post-emergence action against MATIN, 1.28 kg/ha; assay type: in vivo, Tripleurospermum inodorum (Matricaria inodora); details: dosage 1280 g/ha, visual rating about 3 weeks after treatment vs untreated controls (100% = plants died)
In short: as §2

POAAN [9] = test: Post-emergence action against POAAN, 1.28 kg/ha; assay type: in vivo, Poa annua; details: dosage 1280 g/ha, visual rating about 3 weeks after treatment vs untreated controls
In short: as §2

ALOMY [10] = test: Post-emergence action against ALOMY, 1.28 kg/ha; assay type: in vivo, Alopecurus myosuroides; details: dosage 1280 g/ha, visual rating about 3 weeks after treatment vs untreated controls
In short: as §2

ABUTH = test: Post-emergence action against ABUTH, 1.28 kg/ha; assay type: in vivo, Abutilon theophrasti; details: dosage 1280 g/ha, visual rating about 3 weeks after treatment vs untreated controls (100% = plants died)
In short: as §2

Structure (SMILES)	Pre-emergence action against STEME (STEME)	Post-emergence action against VERPE (VERPE [1])	Pre-emergence action against MATIN (MATIN [2])	Pre-emergence action against VERPE (VERPE [3])	Pre-emergence action against POAAN (POAAN [4])	Pre-emergence action against ALOMY (ALOMY [5])	Pre-emergence action against SETVI (SETVI)	Pre-emergence action against LOLRI (LOLRI)	Pre-emergence action against DIGSA (DIGSA [6])	Pre-emergence action against KCHSC (KCHSC)	Pre-emergence action against AMARE (AMARE)	Pre-emergence action against ECHCG (ECHCG)	Post-emergence action against DIGSA (DIGSA [7])	Post-emergence action against MATIN (MATIN [8])	Post-emergence action against POAAN (POAAN [9])	Post-emergence action against ALOMY (ALOMY [10])	Post-emergence action against ABUTH (ABUTH)
C[C@@H](Oc1nn(-c2ccccc2F)c(-c2cnccn2)c1Br)C(=O)O [Example I-002]	100%	90%	100%	100%	100%	90%	100%	90%	100%	100%	100%						
O=C(O)C1CCN(C(=O)COc2nn(-c3ccccc3F)c(-c3cncc(F)c3)c2Br)C1 (stereo not drawn) [Example X-040]	90%	100%	90%	90%	90%		90%	90%	90%	90%	90%	90%	90%	100%	100%	100%	90%

Source: patent publication US12180187B2, “1-phenyl-5-azinylpyrazolyl-3-oxyalkyl acids and their use for controlling unwanted plant growth” (BAYER AKTIENGESELLSCHAFT, priority 2019, dated 2024)
